The text below walks through data of patent publication US11633411B2, “Methods of treating sepsis using anti-sepsis lipid A (ASLA) based therapeutics” (UNIVERSITY OF MARYLAND, BALTIMORE, priority 2016, dated 2023).

The EC50 is the concentration giving half of the maximal effect.

Data set [1] relates to C57BL6 mice. Briefly: Lethal endotoxic shock mouse model (25 mg/kg E. coli W3110 LPS i.p.). The format is in vivo. The following applies: for survival rate: preliminary experiment; for survival: repeat experiment. How it is done:
FIG. 4. ALSA 468 therapeutically rescues mice from lethal endotoxic shock. Lethal endotoxic shock was induced in 6-8 week old C57BL6 mice by injecting 25 mg/kg of E. coli LPS (strain W3110) i.p. […]
To determine if ASLA 468 is capable of therapeutically rescuing mice that have received a lethal dose of pro-inflammatory Ec LPS, an in vivo mouse model of lethal endotoxin septic shock was used. Medzhitov, R. Nat. Rev. Immunol. 2001, 1, 135-145; Remick et al., Shock 2000, 13, 110. […] These pilot experiments provide a proof-of-principle that molecules found to compete with pro-inflammatory LPS in vitro are also capable of combating symptoms of septic shock in vivo. Future sepsis models to be used in this proposal will account for bacterial clearance after antibiotic treatment, in vivo location and concentration of LPS, and the structural relationship between ASLA and MD2/TLR4 complex that will address some shortcomings of previous anti-sepsis therapeutics, which is the scientific premise of this proposal. Raetz et al., Annu. Rev. Biochem. 2002, 71, 635-700; Raetz et al., J. Lipid Res. 2009, 50 Suppl, S103-108; Needham et al., S. Nature Reviews Microbiology 2013, 11, 467-481; Ernst et al., Science 1999, 286, 1561-1565; Miller et al., Nature Reviews Microbiology 2005, 3, 36-46; Siegemund et al., Nat Immunol 2012, 13, 1031-1033; Rietschel et al., FASEB J. 1994, 8, 217-225; van Lieshout et al., Inflamm. Res. 2014, 63, 927-933; Buras et al., Nat Rev Drug Discov 2005, 4, 854-865.
Experimental Setup: Similarly to the non-lethal endotoxic shock model, in this in vivo model of lethal septic shock 6-week old C57BL6 mice were injected intraperitoneally with either 25 mg/kg E. coli (W3110) LPS, co-administered 25 mg/kg Ec LPS+10 mg/kg BECC468@26, or 25 mg/kg Ec LPS followed by 10 mg/kg BECC468@26 four hours later. Mice were monitored for survival every 12 hours post-injection. n=6 mice for each group, percent survival for each group is graphed.

Data set [2] deals with T1, TLR4 (Homo sapiens, UniProt O00206+Q9Y6Y9). Briefly: NF-κB activation screen in THP-1 Dual reporter cells (SEAP under NFκB promoter). The format is cell-based. More on the design: host or cells: THP-1 Dual reporter cells. How it is done:
To identify the most successful ASLA candidates to be tested for efficacy in vivo, we will stimulate both human and mouse cell cultures with increasing concentrations (0.01 ng/ml, 0.1 ng/ml, 1 ng/ml, 10 ng/ml, 100 ng/ml) of novel lipid A preparations for 4 and 24 hours. All in vitro assays will be run in biological triplicate to increase the scientific rigor of experiments. Activation of inflammatory pathways will be investigated by stimulating THP-1 cells (ATTC), a human monocytic cell line, followed by multiplex analysis of cytokines in the supernatant minimally including TNF-α, IL-8, and IL-6. We will also screen ASLA molecules using THP-1 Dual (Invitrogen) and HEK293 cells transfected with human or mouse MD2/TLR4 (Invitrogen), which have an easily detectable SEAP transcript under the NF-kB promoter to quickly evaluate the potential for these ASLA molecules to inhibit MyD88-NF-kB activation. To account for authentication of key biological resources, all cell lines were purchased from and verified by either ATCC or Invitrogen within the past year and cells used in experiments have been passaged less than 15 times since purchase. Together, these assays will illustrate a lack of inflammatory activation when cells are stimulated with the ASLA molecules. […]

Data set [3] addresses T1, TLR4. The experiment in a line: Competitive inhibition of pro-inflammatory LPS in THP-1 Dual reporter cells. As to conditions: Se LPS plus ASLA 470.
Protocol: THP-1 Dual cells (Invitrogen) contain an easily detected secreted alkaline phosphatase (SEAP) under the NFκB promoter. E. coli LPS (circles), ALSA 468 (squares), and E. coli LPS+a constant 10 ng/mL ASLA 468 (triangles) are cultured with THP-1 Dual over a 5-log dilution series, activation of NFκB, as measured by SEAP expression, is pictured.
To investigate the inflammatory properties of BECC synthesized molecules ASLA 468 and 470, THP-1 Dual cells (Invitrogen) were used to screen for NF-κB activation.
Experimental Setup: Reporter cell line THP-1 Duals (Invitrogen) are incubated for 18 hours over a five-log dose range with either Salmonella enterica (Se) LPS alone, BECC molecule alone (467@26, 468@26, 468@37, 469@26, 470@26, 470@37), or increasing doses of Se with a constant dose of BECC molecule (10 ng/mL). THP-1 Dual cells have a SEAP reporter under the NFκB promoter that is easily quantified in the supernatant of cultured cells. After 18 hours of culture supernatant is removed from the cell culture and SEAP is quantified to indicate the level of NFκB activation/inflammation. OD@620 nm can be directly extrapolated to represent relative amounts of NFκB activation. […] Mean±SD of duplicate samples is graphed for each data point.

Structures are written as SMILES.

T1 sequence (O00206 24-839): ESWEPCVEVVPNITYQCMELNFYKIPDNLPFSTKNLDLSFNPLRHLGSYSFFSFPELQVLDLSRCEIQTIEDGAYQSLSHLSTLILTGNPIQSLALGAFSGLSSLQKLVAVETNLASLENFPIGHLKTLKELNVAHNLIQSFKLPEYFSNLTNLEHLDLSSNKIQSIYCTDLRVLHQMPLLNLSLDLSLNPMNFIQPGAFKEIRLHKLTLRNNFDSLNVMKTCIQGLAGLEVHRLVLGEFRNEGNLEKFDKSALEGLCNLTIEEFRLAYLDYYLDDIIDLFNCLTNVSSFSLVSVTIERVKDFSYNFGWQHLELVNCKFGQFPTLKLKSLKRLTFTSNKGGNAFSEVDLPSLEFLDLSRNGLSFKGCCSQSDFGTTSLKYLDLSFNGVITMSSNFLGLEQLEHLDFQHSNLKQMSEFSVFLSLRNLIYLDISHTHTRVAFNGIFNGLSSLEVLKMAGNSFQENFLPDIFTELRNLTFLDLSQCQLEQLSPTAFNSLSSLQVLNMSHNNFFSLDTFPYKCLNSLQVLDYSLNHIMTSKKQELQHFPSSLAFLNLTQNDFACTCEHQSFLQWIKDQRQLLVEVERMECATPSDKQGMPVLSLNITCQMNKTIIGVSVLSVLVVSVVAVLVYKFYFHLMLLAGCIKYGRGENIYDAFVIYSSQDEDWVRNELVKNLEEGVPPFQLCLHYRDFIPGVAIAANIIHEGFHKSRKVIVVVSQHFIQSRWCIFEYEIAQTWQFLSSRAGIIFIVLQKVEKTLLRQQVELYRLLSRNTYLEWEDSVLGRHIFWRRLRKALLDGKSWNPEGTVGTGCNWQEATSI
T1 sequence (Q9Y6Y9 17-160 limits assumed): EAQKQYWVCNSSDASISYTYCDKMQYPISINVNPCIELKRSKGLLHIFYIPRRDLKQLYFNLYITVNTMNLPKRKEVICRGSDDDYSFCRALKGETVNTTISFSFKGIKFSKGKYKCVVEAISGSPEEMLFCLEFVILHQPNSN

Consider `CCCCCC/C=C\CCCCCCCC(=O)OC(CCCCCCCCCCC)CC(=O)NC1[C@H](OCC2OC(OP(=O)(O)O)C(NC(=O)CC(O)CCCCCCCCCCC)[C@@H](OC(=O)CC(O)CCCCCCCCCCC)[C@@H]2O)OC(CO)C(O)[C@@H]1OC(=O)CC(CCCCCCCCCCC)OC(=O)CCCCCCCCCCC` (some centres unmarked) [ASLA 468], for which the survival rate came to 66.6% in data set [1] (10 mg/kg given 4 hours after 25 mg/kg Ec LPS) and 100% in data set [1] (10 mg/kg given simultaneously with 25 mg/kg Ec LPS). The pathogenic symptoms entry in data set [1] (mice injected with ASLA 468 alone) is “no signs of pathogenic symptoms”. Further, the figures for the survival in data set [1] (treated 8 hours post-induction) and in data set [1] (treated 12 hours post-induction) were 100% and 66.6%, respectively. This compound also had an EC50 in data set [2] of 69.5 nM.

As to `CCCCCC/C=C\CCCCCCCC(=O)OC(CCCCCCCCCCC)CC(=O)NC1[C@H](OCC2OC(OP(=O)(O)O)C(NC(=O)CC(CCCCCCCCCCC)OC(=O)CCCCCCCCCCCCCCC)[C@@H](OC(=O)CC(O)CCCCCCCCCCC)[C@@H]2O)OC(CO)C(O)[C@@H]1OC(=O)CC(CCCCCCCCCCC)OC(=O)CCCCCCCCCCC` (some centres unmarked) [ASLA 470], the “fold increase of the EC50 of Se LPS” value in data set [3] came out at 1.9 fold. For the same compound, in data set [2] (five-log dilution series, compared to Ec LPS positive control), the “agonist category (full, partial, or weak agonist) for NF-κB activation” value is listed as “weak agonists”.
